Data taken from paper PMC8990417, “^18F-labeled Dimer-Sansalvamide A Cyclodecapeptide: A Novel Diagnostic Probe to Discriminate Pancreatic Cancer from Inflammation in a Nude Mice Model” (Journal of Cancer, 2022).

Columns and labels:
PL45 cells = assay: MTT bioactivity assay (cell viability); assay type: cell-based, human; details: 72 hours incubation
Description: A 3-(4,5-Dimethylthiazol-2-yl)-2,5-Diphenyltetrazolium Bromide (MTT) (Thermo Fisher Scientifc, NY, USA) assay was used to test the bioactivity of NOTA-Dimer-San A cyclodecapeptide. PL45 cells (5000 cells) were seeded in a 96-well plate and incubated overnight. […]. Each concentration was performed in triplicate, and the drug was incubated with the cells for 72 hours. Then 10 μL of MTT (5 mg/mL) was added into each well, incubated for 4 hours until a purple precipitate was visible, and then 100 μL of a detergent reagent was added and incubated until the crystal was dissolved. Finally, the optical density (proportional to the number of live cells) was assessed with a Synergy H1 Hybrid Reader (BioTek® Instruments Inc., Winooski, Vermont, USA) at 570 nm. The cell viability (%) was calculated with GraphPad Prism 5.0 software (GraphPad Software Inc., San Diego, CA, USA).

Hsp90 in PL45 cells = target: T1, Hsp90 in PL45 cells (Homo sapiens, UniProt P07900); assay: Confocal cell immunofluorescence; assay type: cell-based; details: biotin-peptide detected with Cy5 labeled avidin, anti-Hsp90α antibody co-stain
T1 construct: endogenous in cells; host or cells: PL45 cells
Description: PL45 cells (3-5 × 10^5) were seeded in a confocal plate with 500 µL of culture medium and incubated for 24 hours at 37°C with 5% CO2. The cell culture medium was then removed, and the cells were rinsed 3 times using phosphate buffered saline (PBS). The cells were fixed using 400 µL of 4% paraformaldehyde (pH 7.4) for 20 minutes at room temperature (RT, ~20°C). Then 500 µL of 3% Bovine Serum Albumin (BSA) (Sigma-Aldrich Corp., St. Louis, MO, USA) was added and incubated for 30 minutes at RT for blocking. The cells were washed and then 250 µL of diluted anti-hsp90α antibody (1:250) or biotine-Dimer-San A peptide was added and incubated for 24 hours at 4°C. The cells were washed, and the desired concentration of the fluorescent-dye-labeled secondary antibody (Abcam, Cambridge, UK) or Cy5 labeled avidin (Vector Laboratories, Burlingame, CA, USA) was added and protected from light at RT for 60 minutes. The supernatant was discarded, and the cells were washed, then a drop of antifade mounting medium with DAPI (Vector Laboratories, Burlingame, CA, USA) was added and incubated for 45 minutes. The target antigen was visualized by confocal fluorescence microscopy Zeiss LSM 880 Airyscan (Carl Zeiss AG, Oberkochen, Germany).

[1] = system: pancreatic cancer PL45 cells; parameters: method as in PMID 20014866, PMID 29202402; details: read-out: IC50 (inhibition of pancreatic cancer PL45 cells); cited from earlier work

Molecule | IC50 (PL45 cells) [µM] | binding / co-localization with Hsp90 (confocal immunofluorescence) (Hsp90 in PL45 cells) | IC50 [1] [µM]
C=CCNC1=C2C[C@@H](C)C[C@H](OC)[C@H](O)[C@@H](C)/C=C(\C)[C@H](OC(N)=O)[C@@H](OC)/C=C\C=C(/C)C(=O)NC(=CC1=O)C2=O [17AAG, 17-allylaminogeldanamycin] | 0.127 |  | 
Dimer-Sansalvamide A cyclodecapeptide [Dimer-San A] |  | bound to the Hsp90 target | 0.001 to 0.02
